In patent US20060068071A1, “Saturated and unsaturated N-alkamides exhibiting taste and flavor enhancement effect in flavor compositions” (priority 2004, published 2006):

Experiment: Organoleptic properties (taste profile) of the amides
Source text: More specifically, examples of the organoleptic properties for the dienalkylamides of our invention are as follows: […]

[1] = Formula II compounds, at 10 ppm

| Structure (SMILES) | Taste profile (Formula II compounds) | also measured |
| --- | --- | --- |
| CC/C=C\CC/C=C/CNC(=O)C1CC1 | – | Taste profile (Formula I compounds): Moderate Umami, off fish oily character |
| CC/C=C\CC/C=C(\C)CNC(C)=O | – | Taste profile (Formula I compounds, at 10 ppm): Potent warming at 10 ppm |
| CC(C)=CCC/C(C)=C\CNC(=O)C1CC1 | Salty, MSG, Umami, brothy, mouthfeel, sweetness. | – |
| CC(C)=CCC/C(C)=C/CNC(=O)C1CC1 | Salt, MSG, Umami, mouthfeel, lasting sweetness. | – |
| CC(C)=CCC/C(C)=C\CNC(=O)C(C)C | Salt enhancement, MSG enhancement, Umami, brothy, sweet end profile | – |
| C/C=C/C(=O)NC/C=C(/C)CCC=C(C)C | Moderate umami, some saltiness. | – |
| CC(C)=CCC/C(C)=C\CNC(=O)C=C(C)C | – | Taste profile [1]: Clean, weak umami effect at 10 ppm |
| C/C=C/C(=O)NC/C=C(\C)CCC=C(C)C | Moderate umami, salt like, lemon character. | – |
| CC(C)=CCC/C(C)=C/CNC(=O)C=C(C)C | – | Taste profile [1]: Clean, weak umami effect at 10 ppm |
| CCCCC/C=C\CC/C=C/CNC(=O)C1CC1 | – | Taste profile (Formula I compounds): Oily, moderate umami |
| CC(C)=CCC/C(C)=C/CNC(=O)C(C)C | Some salt enhancement, umami and strong MSG effect, sweet end profile | – |
